# Measurements from PMC4868737, “BAY 1024767 blocks androgen receptor mutants found in castration-resistant prostate cancer patients” (Oncotarget, 2016).
# Changes are numbered by the printed parent chain.
# How the values were obtained:
# AR E709Y = biological target: T1, AR E709Y (Homo sapiens, UniProt P10275, E710Y); assay: cell-based; conditions: IC50 (antagonistic activity)
# T1 sequence (P10275 1-920 E710Y): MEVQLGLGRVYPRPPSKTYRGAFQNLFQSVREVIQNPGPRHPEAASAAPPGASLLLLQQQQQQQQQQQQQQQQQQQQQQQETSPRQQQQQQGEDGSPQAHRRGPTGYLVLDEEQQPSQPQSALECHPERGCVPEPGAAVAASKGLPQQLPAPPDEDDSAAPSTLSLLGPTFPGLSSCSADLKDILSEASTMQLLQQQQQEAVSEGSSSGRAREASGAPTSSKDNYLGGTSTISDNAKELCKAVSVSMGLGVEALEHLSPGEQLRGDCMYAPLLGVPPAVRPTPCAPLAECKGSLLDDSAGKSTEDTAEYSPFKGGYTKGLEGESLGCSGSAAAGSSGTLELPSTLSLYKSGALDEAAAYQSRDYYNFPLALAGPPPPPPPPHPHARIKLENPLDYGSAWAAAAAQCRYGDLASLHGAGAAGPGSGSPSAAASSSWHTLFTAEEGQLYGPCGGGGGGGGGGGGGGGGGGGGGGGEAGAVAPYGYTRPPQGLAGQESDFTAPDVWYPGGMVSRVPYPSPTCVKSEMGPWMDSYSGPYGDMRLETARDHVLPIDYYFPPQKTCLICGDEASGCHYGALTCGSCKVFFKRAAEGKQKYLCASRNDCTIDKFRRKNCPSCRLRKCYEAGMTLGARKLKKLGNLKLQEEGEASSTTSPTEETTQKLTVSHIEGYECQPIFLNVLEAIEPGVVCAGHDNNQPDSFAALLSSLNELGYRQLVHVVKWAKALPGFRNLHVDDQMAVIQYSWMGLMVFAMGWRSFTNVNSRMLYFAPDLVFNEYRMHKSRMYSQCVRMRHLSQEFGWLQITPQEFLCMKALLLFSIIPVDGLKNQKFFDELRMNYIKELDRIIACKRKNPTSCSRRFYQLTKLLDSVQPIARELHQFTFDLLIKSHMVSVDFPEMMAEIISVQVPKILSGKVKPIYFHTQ
# AR V715M = AR V715M (Homo sapiens, UniProt P10275, V716M); assay: cell-based; conditions: IC50 (antagonistic activity)
# AR F876L = biological target: T2, AR F876L (Homo sapiens, UniProt P10275, F877L); assay: cell-based; conditions: IC50 (antagonistic activity)
# T2 sequence (P10275 1-920 F877L): T1 sequence (P10275 1-920 E710Y) with Y710E, F877L
# [1] = system: Dunning R3327-G prostate cancer model; assay: Anti-tumor efficacy in the syngeneic Dunning rat R3327-G model; type: in vivo
# Procedure: The Dunning R3327-G tumor [51] was maintained by serial in vivo passages. For the efficacy experiment, tumor tissue pieces of 8 mm^3 were inoculated subcutaneously (flank region) in 12-13 week-old male Copenhagen rats (COP/CrCrl strain, Charles River Laboratories). Treatment was started once the tumor reached 50 mm^2 and rats were randomly assigned to control (n = 9), castrated (n = 10) or treatment group (n = 10). In the treatment group 40 mg/kg of BAY 1024767 was given orally once a day (p.o., QD). The vehicle was NMP/PEG 1/9 (v/v). Rat body weight was measured at least twice a week. Tumor volume and weight were determined as above.
# [2] = In vivo pharmacokinetics in male NMRI mice; conditions: mouse, plasma
# Procedure: BAY 1024767 was administered to 6-7 week-old male NMRI mice in the tail vein by a single dose of 0.5 mg/kg and intragastral by a single dose of 1 mg/kg formulated in PEG400/water (60/40). Three mice were sacrificed at different time points after dosing, and blood (for heparinized plasma) was sampled from the vena cava. Analysis of the samples was performed by LC/MS/MS and pharmacokinetic parameters were calculated by non-compartmental analysis.
# AR L701H = AR L701H (Homo sapiens, UniProt P10275, L701H/L702H); assay: cell-based; conditions: IC50 (antagonistic activity)
structure (smiles),measurement,setting,value
CC(C)(O)COc1ccc(CN2C(=S)N(c3ccc(C#N)c(C(F)(F)F)c3)C(=O)C2(C)C)cn1 [BAY 1024767],IC50,AR E709Y; R1881 0.1 nM,30 nM
same,IC50,AR E709Y; R1881 1 nM,130 nM
same,IC50,AR E709Y; R1881 10 nM,610 nM
same,IC50,AR V715M; R1881 0.1 nM,52 nM
same,IC50,AR V715M; R1881 1 nM,240 nM
same,IC50,AR F876L; R1881 0.1 nM,106 nM
same,IC50,AR F876L; R1881 1 nM,293 nM
same,IC50,AR F876L; R1881 10 nM,2060 nM
same,body weight,[1]; 40 mg/kg p.o. daily,No significant body weight loss
same,tumor volumes,[1]; 40 mg/kg p.o. daily,significant anti-tumor efficacy
same,seminal vesicle weight,"[1]; 40 mg/kg p.o. daily, comparable to castrated group, data not shown",strong inhibition
same,% T/C (tumor weight),"[1]; 40 mg/kg p.o. qdx49, day 113 post-tumor implantation",11%
same,clearance,"[2]; iv, 0.5 mg/kg i.v., read-out: CLB (blood clearance) (converted)",1 mL/min/kg
same,Vd,"[2]; iv, 0.5 mg/kg i.v., read-out: VSS (volume of distribution)",0.61 L/kg
same,bioavailability,"[2]; oral, 1 mg/kg intragastral vs 0.5 mg/kg i.v., read-out: F (oral bioavailability)",99%
same,IC50,AR L701H; R1881 1 nM,718 nM
same,IC50,AR L701H; R1881 10 nM,1380 nM
